Results reported in patent US7785900B1, “Glutathione beads and GST fusion proteins” (STC.UNM, priority 2006, dated 2010).
One block for each compound: values may come before it.

Key:
Bcl-2 family proteins = settings: Oltersdorf et al., 2005; read-out: binding constant obtained earlier; cited from earlier work
[1] = test system: GST-Bcl-2 fusion proteins; test: FPA competition assay with FITC-Bid BH3 peptide; assay type: binding, human; settings: 100 nM GST-Bcl-2 fusion proteins, 5 nM FITC-Bid BH3
Procedure: 100 nM of GST-Bcl-2 fusion proteins were incubated with various concentrations of EGCG or control compound ECG (“C”) for 2 min in PBS buffer in 50 μL. Then, 5 nM FITC-conjugated-Bid BH3 peptide was added, bringing final volume to 100 μL and final DMSO concentration to 1%. Fluorescence polarization was measured after 20 minutes.
C1.3 FPA competition assay for Bcl-2-binding compounds. The green tea compound […] has been reported to bind Bcl-2 and Bcl-XL (Leone et al., 2003). The ability of EGCG to compete with fluorochrome-labeled BH3 peptides was confirmed by FPA. […] This compound therefore can serve as a positive control when performing high throughput screens of any compound library, including the NIH library.

GST-Rab7 [2] = target: T1, GST-Rab7 (Homo sapiens, UniProt P51149); test: Competition of nucleotides with Bodipy-FL-GTP for bead-bound GST-Rab7; assay type: binding; settings: 10 nM GST-Rab7 preloaded, 1 μM GTP*
T1 construct: made in house; host or cells: bacteria
From the text: The signal to background levels are compatible with homogeneous analysis of the binding of the fluorescent GTP analog. Moreover, the assay is conservative with respect to protein, using <1 pmol of protein per well.

GST-GFP = GST-GFP (Schistosoma japonicum, UniProt P08515); test: biochemical
Procedure: The standard assay for monitoring the concentration of free glutathione was performed in ten microliters of HPSM buffer with 0.01% dodecyl maltoside added to reduce nonspecific binding. Typically, two microliters of 50 nM GST-GFP and two microliters of bead suspension containing 10,000 beads (as determined using a hemacytometer) were added to six microliters of buffer, with or without some competitor, giving 10 nM GST-GFP in the suspension. The ten microliter assays were gently shaken in wells of a 96 V-shaped well plate (Corning Costar #2897) on a vortex mixer in a cold room for two hours.

GST-Rab7 [3] = target: T1, GST-Rab7; test: Bodipy-FL-GTP binding to and dissociation from bead-bound GST-Rab7
Procedure: A fluorescent GTP-binding assay capable of being monitored by flow cytometry was developed and optimized using GST-Rab7 protein and Bodipy-FL-GTP (GTP*). […] Values are usually expressed as 1000 fluorescence equivalents of fluorescein in free solution (kMESF).
The binding of purified GST-Rab7 to bGSH was measured by using increasing concentrations (1.0-316.0 nM) of GST-Rab7 with a fixed amount of bGSH (−10,000 beads/reaction and excess (1.0 µM) GTP*).
In order to measure the rate of GTP* dissociation from bead-bound Rab7, bGSH were pre-loaded with 100 nM GST-Rab7 and incubated with 1 µM GTP* at 37° C. for 2 h. Dissociation of GTP* from the beads was then measured at 37° C. both for simple dilution with buffer as well as upon addition of 1000-fold higher (1 mM) non-fluorescent GTP (FIG. 6). The calculated half-time was 72.7s. The rate of dissociation in the presence of 1 mM unlabeled GTP alone was 9.6×10^−3s^−1.

Ras superfamily members = test: Multiplex Bodipy-FL-GTP binding and GTP competition
Procedure: The Bodipy-FL-GTP binding assay established using wild-type GST-Rab7 was adapted for multiplex, high-throughput assays by Sklar and colleagues.
384-well microplates are configured with 64 control wells (columns 1 and 2 unblocked, and columns 23 and 24 with 1 mM GTP), leaving 320 wells to which test compounds are added as per the Roadmap compound plates supplied. Compounds from the molecular library and GTP controls are added in 5 μl, Bodipy-FL-GTP is added in 5 μl, and GST-G protein-coated beads are added in 5 μl. […] The bead sets are coated by mixing each “address level of red fluorescence” bead type individually in the presence of ˜60 nM GST-small G protein for two hours with 5,000 beads per microliter. The sets are then combined together, centrifuged, and resuspended just before addition to the assay plate. The beads are kept in suspension during the competitive assay using rotation at 22° C. for 2 hours, then the plate is read at room temperature at a cytometer.

T1 sequence (P51149 whole entry): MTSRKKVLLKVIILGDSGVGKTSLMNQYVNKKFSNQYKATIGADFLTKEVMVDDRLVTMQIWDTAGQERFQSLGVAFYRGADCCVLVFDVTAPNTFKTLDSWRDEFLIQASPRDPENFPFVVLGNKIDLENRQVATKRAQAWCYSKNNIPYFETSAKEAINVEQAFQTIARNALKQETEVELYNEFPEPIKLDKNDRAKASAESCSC
Sequence of GST-GFP (P08515 2-218, added parts left off): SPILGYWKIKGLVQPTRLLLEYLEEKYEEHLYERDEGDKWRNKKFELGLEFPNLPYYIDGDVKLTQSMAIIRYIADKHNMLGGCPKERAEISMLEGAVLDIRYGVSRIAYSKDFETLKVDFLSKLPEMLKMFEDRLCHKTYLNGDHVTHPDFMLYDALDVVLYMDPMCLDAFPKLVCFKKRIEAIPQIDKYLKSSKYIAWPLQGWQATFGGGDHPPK

Structure (SMILES): CN(C)CC[C@H](CSc1ccccc1)Nc1ccc(S(=O)(=O)NC(=O)c2ccc(N3CCN(Cc4ccccc4-c4ccc(Cl)cc4)CC3)cc2)cc1[N+](=O)[O-] [ABT737]
- Ki (Bcl-2 family proteins): < 1 nM

Structure (SMILES): O=C(O[C@@H]1Cc2c(O)cc(O)cc2O[C@@H]1c1cc(O)c(O)c(O)c1)c1cc(O)c(O)c(O)c1 [ECGC, epigallecatechin]
- competition with FITC-Bid BH3 peptide [1]: binds to all six anti-apoptotic members of the Bcl-2-family, to variable extents

- EC50 (GST-Rab7 [2]): 560 nM
Structure (SMILES): Nc1nc2c(ncn2[C@@H]2O[C@H](COP(=O)(O)OP(=O)(O)O)[C@@H](O)[C@H]2O)c(=O)[nH]1 [GDP]

Structure (SMILES): N[C@@H](CCC(=O)N[C@@H](CS)C(=O)NCC(=O)O)C(=O)O [GSH, γ-glu-cys-gly]
- EC50 (GST-GFP): 39 µM
- Ki (GST-GFP): 35 µM

- rate of dissociation (GST-Rab7 [3]; 1 mM GTP alone, 37° C.): 0.0096 s⁻¹
- Kd (GST-Rab7 [3]; GTP* binding to GST-Rab7): 94 nM
- specific binding affinities (Ras superfamily members; fourplex): within a factor of two of each other
- EC50s (Ras superfamily members; sixplex, 25 or 50 nM Bodipy-FL-GTP): within the same order of magnitude
Structure (SMILES): Cc1cc(C)n2c1C=C1C=CC(CCC(=O)NCCNC(=O)OC3C(COP(=O)(O)OP(=O)(O)OP(=O)(O)O)OC(n4cnc5c(=O)[nH]c(N)nc54)C3O)=[N+]1[B-]2(F)F (stereo not drawn) [GTP*]
